According to patent US9845318B2, “Class of near infrared optical probes for biological applications” (The University of Akron, priority 2012, dated 2017):
Counter-ions that a name gives are not always drawn.

Experiments:
[1] = system: zebrafish; test: Imaging of Zn^2+ in developing zebrafish, probe added to fish tank water; type: in vivo
From the text: The most attractive application for zinc probes is sensing Zn^2+ in living organisms. Our ability to discover the fundamental roles of Zn^2+ is dependent on the tools available to detect the Zn^2+ population/concentration in living biological systems. Zebrafish has recently become an important model organism for the study of vertebrate imaging. This is because the embryos of zebrafish are transparent, allowing for clear observation of their organs without the need for dissection. The optical transparancy of zebrafish, therefore, provides a convenient organism for detection of ions by fluorescence microscopy. […] Encouraged by the cell permeability (FIG. 20), Zinhbo-5 was thus examined in developing zebrafish of various stages by adding Zinhbo-5 to fish tank water (treatment lasted for one hour at room temperature). […] However, there were more labeling in other parts of the body in the Zn^2+ treated larvae (FIG. 22 at I). […] Herein the in vivo recognition of the zinc-rich organ in zebrafish larva could be seen with higher image quality by using Zinhbo-5. […] The in vivo results with sensor Zinhbo-5 are somewhat different in light of the previously reported data where zinc was detected using fluorescent sensors in zebrafish. In those studies, fluorescent labeling was concentrated in the heart ventricle of embryos (50 hpf), and scattered throughout the body in larvae (4-5-day old). Whereas Zinhbo-5 labeling is confined mainly to the nose and neuromasts of the lateral line system during this period.
All images show lateral views of live embryos (anterior to the left and dorsal up). The labeled cells are scattered throughout the embryo at 17 hpf (panels A and B). Panel B is a higher magnification of the mid-trunk region of the embryo shown in panel A. Arrowheads in panel B indicate several labeled cells. Zinhbo-5 labeling becomes more restricted as development proceeds. At 50 hpf, Most labeled cells are concentrated in the nose neuromasts of the lateral line system (panels C-F). Arrowheads and asterisks in panels C and D point to some neuromasts in the posterior lateral line system on this side and the other side of the body trunk, respectively. Panels E and F are higher magnifications of the head region of the labeled embryos. Embryos in panels D and F had been treated with Zn2+ before Zinhbo-5 labeling. (Abbreviations: io2, infraorbital line neuromast 2; ml1, middle line neuromast 1; n, nose; o1 and o2, otic lateral line neuromasts 1 and 2; po1, postorbital neuromast 1; so2, supraorbital line neuromast 2).
All images show lateral views (anterior to the left and dorsal up) of live zebrafish larvae. Panels A-C are low magnification images showing almost the entire fish; panels D-F show higher magnification of the head region, while panels G-J show higher magnification of the mid-trunk region of the fish. Panels A, D and G are from larvae labeled with Zinhbo-5. Panels B, E and I are from larvae that had been treated with zinc before exposed to Zinhbo-5. Panels C, F and J are from larvae that were simultaneously treated with Zinhbo-5 and TPEN. […] (Abbreviations: io1 and io3, infraorbital line neuromasts 1 and 3; so1, supraorbital line neuromast 1; ye, yolk extension. Other abbreviations are the same as in FIG. 9).

[2] = Determination of association constant by fluorescence titration with Zn^2+; type: binding
Description: (§1) The NIR emission intensity at ˜710 nm was linearly proportional to the Zn^2+ concentration (linearly dependent coefficient: R^2=0.9982) (FIGS. 18 and 19). […] The association constants K11 and K12 were determined by a nonlinear least-squares analysis of fluorescence intensity versus Zn^2+ ion concentration to be 3.21×10^5 M^−1 and 3.88×10^10 M^−2, respectively.
An approximate linear fit formula is used to calculate the single association constant Kass1 and Kass2:
[formula] where n is the number of equivalents of the added metal ions, F0 is the fluorescence intensity of the free sensor, and F1 is the fluorescence intensity in the presence of excess cation, C0 is the initial concentration of Zinhbo-5. Kass1 and Kass2 can be obtained by a linear analysis of (F1−F)(x) versus

[3] = Fluorescence response of the sensor in solution upon addition of Zn^2+; type: physicochemical
From the text: Free ligand Zinhbo-5 gave only weak green fluorescence at 520 and 560 nm. The green fluorescence signal was increased gradually upon addition of Zn^2+ (FIGS. 12 and 13). In addition, a new emission peak at ˜763 nm occurred, which has a very large Stokes shift (˜285 nm). The new emission band was attributed to the keto form arising from the ESIPT process (FIGS. 14 and 15). […] This is because the substituent at the 5-position of benzoxazole unit exerts less electronic interferences to the anticipated ESIPT process (as shown in structure 5). […] The stronger ESIPT from 9 could be associated with the increased rigidity, when two ligands were assembled together via chelation with Zn^2+ cation.
as §1
All the solvents were of analytic grade. The salt used in stock solutions of metal ions were Zn(OAc)2.2H2O, Co(OAc)2.4H2O, Ni(OAc)2.4H2O, Cu(OAc)2.H2O, MgSO4, Cd(OAc)2.6H2O, Mn(OAc)2.4H2O, FeCl2. 4H2O, CaCl2, Na2SO4, Hg(OAc)2, AgNO3, Pb(OAc)2.3H2O, KNO3. Water used was ultra filter deionized and purchased from fisher. HEPES (2-[4-(2-hydroxyethyl)-1-piperazinyl]-ethanesulfonic acid) was from Fisher. NMR spectra were collected on a Varian 300 Gemini spectrometer. Mass spectrometric data were obtained on a HP1100LC/MSD mass spectrometry. UV-Vis spectra were acquired on a Hewlett-Packard 8453 diode-array spectrometer. Fluorescence spectra were obtained on a HORIBA Jobin Yvon NanoLog spectrometer. All pH measurements were made with a model RS232 meter. The fluorescence quantum yield were obtained using quinine sulfate as the standard (Φ=0.53, 0.1 M H2SO4). Cell fluorescence imaging were obtained on a Nikon Eclipse TE2000-5 fluorescence microscope, and analyzed by MetaFluor software (Universal Imaging Corp.).

[4] = system: Hela cells; test: Fluorescence imaging of intracellular Zn^2+ in Hela cells; type: cell-based
Description: The Zinhbo-5 sensor was applied on Hela cells, in order to examine whether the probe could be useful in living systems under a confocal laser scanning microscopy. […] After three times washing with PBS buffer, the cells were incubated with ZnCl2 (10 μM) in the medium for another 30 min at 37° C., and the fluorescence in living cells was much brighter (FIG. 20, at D).
Hela cells were cultured in DEME (Invitrogen) supplemented with 10% FCS (Invitrogen). One day before imaging, cells were seeded in 24-well flat-bottomed plates. The next day, the Hela cells were incubated with 10 μM sensor Zinhbo-5 for 0.5 h at 37° C. under 5% CO2 and then washed with phosphate-buffered saline (PBS) three times before incubating with 10 μM ZnCl2 for another 0.5 h, cells were rinsed with PBS three times again, then the fluorescence imaging of intracelluar Zn2+ was observed under Nikon eclipase TE2000-5 inverted fluorescence microscopy with a 32× objective lens. The Hela cells only incubated with 10 μM Zinhbo-5 for 0.5 hour at 37° C. under 5% CO2 was as a control. For all images, the microscope settings, such as brightness, contrast, and exposure time were held constant to compare the relative intensity of intracellular Zn^2+ fluorescence.

[5] = 0.1 M H2SO4; cited from earlier work

## CC(C)(C)c1ccc2oc(-c3cc(O)c(-c4nc5c(CN(Cc6ccccn6)Cc6ccccn6)cccc5o4)cc3O)nc2c1 [Zinhbo-5]
[1]; 17 hpf, one hour treatment at room temperature
  distribution of labeled zinc-concentrated cells: distributed throughout the embryos
[1]; 50 hpf and 72 hpf
  distribution of labeled zinc-concentrated cells: mainly located in the nose and neuromasts of the lateral line system
[1]; 82 hpf
  labeling pattern in older larvae: remained similar
[1]; 82 hpf, Zn^2+ 20 μM
  labeling in lateral line structures, exogenous Zn^2+ treated vs untreated larvae: no obvious difference
[1]; 82 hpf, zinc chelator TPEN
  labeling in larvae treated with TPEN: almost completely eliminated
[2]; 2:1 host-guest complex, fluorescence at 710 nm
  association constant K12 / overall association constant Kass: 3.88×10^10 M^−2
[2]; aqueous solution
  Kd (sensitivity for Zn^2+): 2.58 nM^2
[2]; fluorescence at 710 nm
  association constant Kass2: 121000 M⁻¹
[2]; fluorescence intensity versus Zn^2+ concentration, 710 nm
  association constant K11 / Kass1: 321000 M⁻¹
[3]; FIGS. 12 and 13, keto form ESIPT emission
  new emission peak upon addition of Zn^2+: ~763 nm
[3]; HEPES buffer solution with 50% EtOH, 1 equivalent Zn2+
  fluorescence quantum yield Φfl upon addition of one equivalent Zn2+: 0.17
[3]; HEPES buffer solution with 50% EtOH, no Zn^2+
  fluorescence quantum yield Φfl of free ligand: 0.081
[3]; aqueous solution
  fluorescence enhancement upon zinc binding (green emission): about 14 fold
[3]; at ~763 nm, THF, excitation 480 nm (FIG. 14), Zinhbo-5 vs Zinhbo-1, 9 vs crystal 10
  NIR emission strength upon zinc binding, comparison: quite stronger NIR emission
[3]; peak at ~763 nm
  Stokes shift of the new emission peak: ~285 nm
[4]; 10 μM probe, 30 min, 37° C.
  fluorescence inside living cells, probe only: very weak fluorescence
[4]; cells treated with probe and Zn^2+
  cell viability in bright-field transmission image: viable throughout the imaging experiments
[4]; imaging conditions
  toxicity to the cell culture: primarily nontoxic
[4]; living cells
  cell permeability: cell-permeable
[4]; then ZnCl2 (10 μM), 30 min, 37° C.
  fluorescence in living cells after incubation with ZnCl2: much brighter
[4]; zinc chelator TPEN added after Zn^2+
  emission intensity after subsequent addition of TPEN: reverted the emission intensity to that of the zinc-free system

## C=C[C@H]1C[N@@]2CC[C@H]1C[C@H]2[C@H](O)c1ccnc2ccc(OC)cc12 [quinine sulfate]
[5]
  fluorescence quantum yield of standard: 0.53
